Results: US7462630B2, “Diarylalkene derivatives and novel diarylalkane derivatives” (Ajinomoto Co., Inc., priority 2001, dated 2008)

Tests used:
[1] = biological target: T1, N-type calcium channel (Homo sapiens, UniProt Q00975); experiment: Antagonistic activity on N-type calcium channel (fluorescence dye method, KCl-stimulated intracellular calcium change in IMR-32 cells with 1 μM Nifedipine); assay type: cell-based; details: 10 μM test compound, 60 mM KCl stimulation, read-out: Antagonistic activity on N-type calcium channels at 10 μM inhibition rate (%)
T1 construct: host or cells: IMR-32 human neuroblastoma cells, differentiated with dibutyl cAMP and 5-bromodeoxyuridine
T1 sequence (Q00975 whole entry): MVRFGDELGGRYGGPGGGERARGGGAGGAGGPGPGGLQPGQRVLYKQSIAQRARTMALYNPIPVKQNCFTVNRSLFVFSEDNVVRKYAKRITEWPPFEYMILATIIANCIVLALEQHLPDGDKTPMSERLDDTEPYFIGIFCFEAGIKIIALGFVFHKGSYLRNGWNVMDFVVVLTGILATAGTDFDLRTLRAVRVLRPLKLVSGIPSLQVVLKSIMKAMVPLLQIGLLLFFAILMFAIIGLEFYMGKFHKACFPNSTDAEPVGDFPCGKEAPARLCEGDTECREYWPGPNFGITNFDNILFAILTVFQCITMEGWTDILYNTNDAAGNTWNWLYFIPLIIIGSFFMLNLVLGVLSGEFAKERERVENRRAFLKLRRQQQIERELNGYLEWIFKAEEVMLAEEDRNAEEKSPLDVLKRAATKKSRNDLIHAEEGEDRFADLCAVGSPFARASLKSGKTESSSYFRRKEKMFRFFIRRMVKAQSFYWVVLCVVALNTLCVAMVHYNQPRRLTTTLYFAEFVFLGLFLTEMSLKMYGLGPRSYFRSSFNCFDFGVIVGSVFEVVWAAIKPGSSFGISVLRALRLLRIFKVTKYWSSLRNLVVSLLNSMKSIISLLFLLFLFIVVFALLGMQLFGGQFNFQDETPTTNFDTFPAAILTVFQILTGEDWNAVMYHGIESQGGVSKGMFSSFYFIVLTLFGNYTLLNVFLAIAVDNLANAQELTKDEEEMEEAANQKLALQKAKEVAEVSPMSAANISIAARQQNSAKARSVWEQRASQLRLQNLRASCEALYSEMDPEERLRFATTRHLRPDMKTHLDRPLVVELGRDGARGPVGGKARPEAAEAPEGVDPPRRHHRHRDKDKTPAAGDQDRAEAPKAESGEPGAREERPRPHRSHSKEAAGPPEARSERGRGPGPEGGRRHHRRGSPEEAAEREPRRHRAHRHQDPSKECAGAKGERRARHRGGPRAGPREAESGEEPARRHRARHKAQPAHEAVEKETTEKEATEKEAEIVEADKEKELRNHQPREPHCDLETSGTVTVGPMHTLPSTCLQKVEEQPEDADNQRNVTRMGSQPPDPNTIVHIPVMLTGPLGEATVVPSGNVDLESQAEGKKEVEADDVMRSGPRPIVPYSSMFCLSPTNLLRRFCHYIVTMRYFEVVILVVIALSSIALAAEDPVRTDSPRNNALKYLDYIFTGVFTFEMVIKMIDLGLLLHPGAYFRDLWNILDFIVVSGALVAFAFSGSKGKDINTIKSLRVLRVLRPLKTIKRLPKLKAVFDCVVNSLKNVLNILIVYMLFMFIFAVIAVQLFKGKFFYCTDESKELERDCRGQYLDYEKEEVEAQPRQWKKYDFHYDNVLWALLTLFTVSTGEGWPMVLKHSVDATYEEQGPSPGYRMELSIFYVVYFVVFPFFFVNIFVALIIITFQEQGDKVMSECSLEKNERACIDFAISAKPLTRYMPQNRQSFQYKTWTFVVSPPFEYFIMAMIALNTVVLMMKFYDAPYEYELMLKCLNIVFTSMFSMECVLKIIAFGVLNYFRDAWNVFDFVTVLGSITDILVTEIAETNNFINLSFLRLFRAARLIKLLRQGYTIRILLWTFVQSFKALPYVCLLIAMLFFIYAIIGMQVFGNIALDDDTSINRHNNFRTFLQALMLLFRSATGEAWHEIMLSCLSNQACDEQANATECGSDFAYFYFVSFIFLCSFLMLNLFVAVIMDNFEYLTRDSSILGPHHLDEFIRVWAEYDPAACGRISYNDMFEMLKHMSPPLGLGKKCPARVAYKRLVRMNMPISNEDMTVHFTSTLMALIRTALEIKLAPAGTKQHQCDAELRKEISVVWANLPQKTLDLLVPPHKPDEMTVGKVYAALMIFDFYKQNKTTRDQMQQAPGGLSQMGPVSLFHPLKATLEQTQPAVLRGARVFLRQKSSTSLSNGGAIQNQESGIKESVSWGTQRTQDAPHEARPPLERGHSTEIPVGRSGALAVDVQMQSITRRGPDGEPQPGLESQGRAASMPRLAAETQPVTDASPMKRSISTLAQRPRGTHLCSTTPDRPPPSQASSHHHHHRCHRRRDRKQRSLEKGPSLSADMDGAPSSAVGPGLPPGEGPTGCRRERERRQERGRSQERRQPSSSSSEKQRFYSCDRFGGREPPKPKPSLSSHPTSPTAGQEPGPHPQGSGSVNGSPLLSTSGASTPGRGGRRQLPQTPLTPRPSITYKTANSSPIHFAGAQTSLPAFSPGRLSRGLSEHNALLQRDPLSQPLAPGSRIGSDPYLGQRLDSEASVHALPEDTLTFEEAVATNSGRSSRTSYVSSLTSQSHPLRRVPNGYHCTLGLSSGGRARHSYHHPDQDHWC
T1 sequence (P54284 whole entry partner): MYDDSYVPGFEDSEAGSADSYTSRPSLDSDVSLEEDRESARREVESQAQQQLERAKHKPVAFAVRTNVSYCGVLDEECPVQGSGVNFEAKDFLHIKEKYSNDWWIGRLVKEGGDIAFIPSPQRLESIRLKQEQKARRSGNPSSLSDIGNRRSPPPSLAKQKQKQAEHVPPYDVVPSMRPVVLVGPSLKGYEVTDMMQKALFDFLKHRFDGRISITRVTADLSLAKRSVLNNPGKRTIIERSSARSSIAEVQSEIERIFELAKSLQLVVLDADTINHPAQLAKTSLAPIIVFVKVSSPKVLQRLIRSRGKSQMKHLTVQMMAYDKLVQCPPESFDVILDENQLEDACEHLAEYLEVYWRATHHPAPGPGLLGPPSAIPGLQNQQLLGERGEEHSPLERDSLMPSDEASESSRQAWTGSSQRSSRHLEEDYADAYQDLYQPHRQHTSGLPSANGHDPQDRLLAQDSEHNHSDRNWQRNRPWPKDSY
T1 sequence (P54289 25-956 partner limits assumed): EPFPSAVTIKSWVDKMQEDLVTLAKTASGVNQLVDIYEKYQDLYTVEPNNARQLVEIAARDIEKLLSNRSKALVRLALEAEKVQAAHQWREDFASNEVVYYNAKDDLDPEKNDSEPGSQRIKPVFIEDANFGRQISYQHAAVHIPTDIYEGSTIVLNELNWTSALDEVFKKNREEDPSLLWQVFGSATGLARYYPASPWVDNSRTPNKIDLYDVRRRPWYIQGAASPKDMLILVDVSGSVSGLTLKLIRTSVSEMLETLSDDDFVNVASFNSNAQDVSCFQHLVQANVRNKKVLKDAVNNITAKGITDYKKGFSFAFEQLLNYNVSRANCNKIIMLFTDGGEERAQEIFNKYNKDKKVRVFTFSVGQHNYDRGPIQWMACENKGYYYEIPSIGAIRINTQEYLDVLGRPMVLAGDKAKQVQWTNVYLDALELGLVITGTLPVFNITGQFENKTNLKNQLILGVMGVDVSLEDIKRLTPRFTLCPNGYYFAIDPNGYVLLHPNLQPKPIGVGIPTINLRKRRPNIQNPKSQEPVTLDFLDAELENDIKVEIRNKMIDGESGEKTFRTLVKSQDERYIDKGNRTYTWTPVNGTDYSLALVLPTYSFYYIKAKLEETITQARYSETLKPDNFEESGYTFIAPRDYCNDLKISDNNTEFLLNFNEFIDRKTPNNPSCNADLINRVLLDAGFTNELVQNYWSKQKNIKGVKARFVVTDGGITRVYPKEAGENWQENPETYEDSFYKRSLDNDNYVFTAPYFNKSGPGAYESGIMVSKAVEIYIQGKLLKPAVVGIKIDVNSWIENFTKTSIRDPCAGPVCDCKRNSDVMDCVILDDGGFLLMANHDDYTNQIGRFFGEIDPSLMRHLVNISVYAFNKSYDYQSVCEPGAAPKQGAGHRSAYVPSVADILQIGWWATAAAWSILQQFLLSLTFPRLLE
T1 sequence (P54289 957-1103 partner limits assumed): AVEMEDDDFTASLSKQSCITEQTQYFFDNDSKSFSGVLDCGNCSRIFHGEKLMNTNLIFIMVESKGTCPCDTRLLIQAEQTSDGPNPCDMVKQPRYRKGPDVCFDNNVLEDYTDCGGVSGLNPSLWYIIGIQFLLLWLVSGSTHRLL
Protocol: Human neuroblastoma cells IMR-32 were obtained from ATCC (American Type Culture Collection). The medium used was a Phenol Red-free Eagle minimum essential medium containing earle's salts (GIBCO) supplemented with 2 mM of L-glutamine (GIBCO), 1 mM of sodium pyruvate (pH 6.5) (GIBCO), antibiotic/antimycotic mixture (GIBCO) and 10% fetal calf serum (Cell Culture Technologies). Three ml of 1×10^5 cells/ml IMR-32 cells were spread on the glass bottom of a dish (Iwaki Glsss Co., Ltd.) having a diameter of 35 mm which had been treated with poly-L-lysin (SIGMA) and collagen (COLLAGEN VITROGEN 100; Collagen Co.). After the culture for 1 day, 1 mM (final concentration) of dibutyl cAMP and 2.5 μM (final concentration) of 5-bromodeoxyuridine (SIGMA) were added. After the culture for additional 10 to 14 days, the cells were subjected to the activity determination.
The medium for IMR-32 cells thus prepared was replaced with 1 ml of Phenol Red-free Eale minimum essential medium (GIBCO) containing 2.5 μM fura-2/AM (Dojin Kagaku, Co.) and earle's salts supplement, and the incubation was conducted at 37° C. for 30 minutes. Then the medium was replaced with a recording medium (20 mM of HEPES-KOH, 115 mM of NaCl, 5.4 mM of KCl, 0.8 mM of MgCl2, 1.8 mM of CaCl2 and 13.8 mM of D-glucose). Antagonistic activity on N-type calcium channel was determined and analyzed using a fluorescence microscope (Nikon Corporation) and an image analysis device ARGUS 50 (Hamamatsu Photonics). In particular, a recording medium (20 mM of HEPES-KOH, 115 mM of NaCl, 5.4 mM of KCl, 0.8 mM of MgCl2, 1.8 mM of CaCl2 and 13.8 mM of D-glucose) containing 1 μM of Nifedipine was given to the cells by reflux by a Y-tube method for 2 minutes. Then a stimulating agent containing 60 mM of potassium chloride was rapidly given by the Y-tube method. The calcium concentration change in the cells in this step was shown as the N-type calcium channel activity. Then stimulating agents containing 60 mM of potassium chloride and 0.1, 1 or 10 μM of the test compound were successively and rapidly given to the cells by the Y-tube method to determine the change in the intracellular calcium concentration. The antagonistic activity on N-type calcium channel was calculated from the inhibition rate (%) at a concentration of 10 μM.

[2] = test system: Sprague-Dawley (SD) rats, formalin-induced flinching; experiment: Analgesic effects in the formalin test; assay type: in vivo, rat
Protocol: Four test groups each composed of 7 male Sprague-Dawley: SD rats (9 weeks old) were used for the experiment. In the control group, 0.5% tragacanth solution was given to the rats. In other test groups, 0.3, 3 or 30 mg/kg of the compound obtained in Example 11 (compound A) was given to them. Compound A was used in the form of a suspension thereof in 0.5% tragacanth solution.
Five ml/kg of 0.5% tragacanth solution or compound A was orally administered to the rats. Three hours after, the rats were tranquilized with halothane, and 2.5% formalin solution (100 μl) was injected subcutaneously to dorsal surface of the left hindpaw. Immediately thereafter, the rats were awaken from the anesthesia. […] The number of times of retracting action, i.e., flinching action of the hindpaw in which formalin had been injected, was counted for 1 minute at an interval of one minute until 5 minutes after the formalin injection, and for 1 minute at an interval of 5 minutes from 10 to 60 minutes after the injection. As reported in a literature (J. Pharmacol. Exp. Ther. 263: 136-146, 1992), the pain reaction by the stimulation with formalin appeared in two phases. The total number of times of the flinching action observed 10 to 60 minutes after the formalin injection (the second phase) was taken as the index of the pain action.
The experiment was conducted in the same manner as that in above Test Example 3 except for the followings.
Five test groups each composed of 6 male Sprague-Dawley (SD) rats (9 weeks old) were used for the experiment. In the control group, polyethylene glycol 400 was given to the rats. In the other test groups, 3, 30, 100 or 300 mg/kg of the compound obtained in Example 71 (compound B) was given to them. Compound B was used in the form of a solution thereof in polyethylene glycol 400 (PEG).
Three ml/kg of PEG or compound B was orally administered to the rats.

Compound | inhibition at 10 µM [1] | inhibiting ratio of flinches (second phase, 10 to 60 min) based on control group ([2]; 0.3 mg/kg oral, suspension in 0.5% tragacanth, 3 hours before formalin) | inhibiting ratio of flinches (second phase, 10 to 60 min) based on control group ([2]; 3 mg/kg oral, suspension in 0.5% tragacanth, 3 hours before formalin) | inhibiting ratio of flinches (second phase, 10 to 60 min) based on control group ([2]; 30 mg/kg oral, suspension in 0.5% tragacanth, 3 hours before formalin) | inhibiting ratio of flinches (second phase, 10 to 60 min) based on control group ([2]; 3 mg/kg oral, solution in polyethylene glycol 400) | inhibiting ratio of flinches (second phase, 10 to 60 min) based on control group ([2]; 30 mg/kg oral, solution in polyethylene glycol 400) | inhibiting ratio of flinches (second phase, 10 to 60 min) based on control group ([2]; 100 mg/kg oral, solution in polyethylene glycol 400) | inhibiting ratio of flinches (second phase, 10 to 60 min) based on control group ([2]; 300 mg/kg oral, solution in polyethylene glycol 400)
CC(C)(C)C(=O)NCCC(=O)N1CCC(=C2c3ccccc3C=Cc3ccccc32)CC1 [Example 11, N-{3-[4-(5H-dibenzo[a,d][7]annulen-5-ylidene)-1-piperidinyl]-3-oxopropyl}-2,2-dimethylpropanamide] | 77% | 10% | 42% | 37% | – | – | – | –
CC(C)(C)C(=O)N[C@H](CO)CCC(=O)N1CCC(=C2c3ccccc3C=Cc3ccccc32)CC1 [Example 71, (S)-N-[4-[4-(5H-dibenzo[a,d][7]annulen-5-ylidene)-1-piperidinyl]-1-(hydroxylmethyl)-4-oxobutyl]-2.2-dimethylpropanamide] | 74% | – | – | – | 11% | 33% | 53% | 59%
